Laboratory results reported in ChEMBL document CHEMBL3046690, “Identification of an ISR-related metabolite produced by rhizobacterium Klebsiella oxytoca C1036 active against soft-rot disease pathogen in tobacco” (Pest Manag Sci, 2009).
Calls of active or inactive are those of the source. No cut-off for these calls is given here.

Key:
Nicotiana tabacum [1] = assay: Induction of systemic resistance (ISR) activity in Nicotiana tabacum (tobacco) seedlings against pectobacterium carotovorum subsp. carotovorum SCC1 assessed as decrease in disease symptoms on leaves at 12 mM applied to roots prior to leaf infection with SCC1 measured at 3 days after pathogen challenge; type: functional, organism-based
Nicotiana tabacum [2] = assay: Induction of systemic resistance (ISR) activity in Nicotiana tabacum (tobacco) seedlings against pectobacterium carotovorum subsp. carotovorum SCC1 assessed as decrease in disease symptoms on leaves applied to roots prior to leaf infection with SCC1 measured at 3 days after pathogen challenge; type: functional, organism-based

Row | SMILES | Activity (Nicotiana tabacum [1]) | Activity (Nicotiana tabacum [2])
1 | CCCCOC(=O)C1CCC(=O)N1 (configuration not stated) | Active | –
2 | CCCCOC(=O)[C@@H]1CCC(=O)N1 | – | Active
